Experimental data as given in PubChem BioAssay AID2060907 (Molecular Pharmacology Branch, DTP, NCI, 2025).
“And” between values parts separate entries of the source, which are not always exact repeats. Equal entries are not always repeated. Blank lines part the entries; values can stand above or below the compound they belong to.

Tested on: 388556-164-R-J1-PDC complex spheroid viability
Test: Anticancer human tumor 388556-164-R-J1-PDC patient-derived colon adenocarcinoma cell line growth inhibition [RAS]
Conditions: for viability, T/C: stronger effect = lower value
Excerpt: RAS pathway inhibitors in Combinations in Complex Spheroids
A high-throughput screen of multi-cell type tumor spheroids was designed to identify active combinations of RAS pathway inhibitors and targeted small molecules. Complex spheroids include a stromal component modeled by human endothelial cells (HUVEC) and fibroblasts modeled by human mesenchymal stem cells (MSCs). The concentration ranges selected for each drug and investigational agent were based upon clinically achievable concentrations if the clinical Cmax of the agent was known.
Compounds. The drugs and investigational agents: abemaciclib (NSC768073), cobimetinib (NSC768068), divarasib (GDC6063, NSC841802), docetaxel (NSC628503), GDC-1971 (RLY-1971, NSC841576), gemcitabine (NSC613327), inavolisib (NSC800729), ipatasertib (NSC767898), KB-0742 (NSC834161), MRTX-1133 (NSC836407), osimertinib (NSC779217), RMC-4630 (NSC839698), RMC-6236 (NSC851965), RMC-6291 (NSC852671), Ro-3306 (NSC812927), sapanisertib (NSC764658), SN-38 (NSC673596), staurosporine (NSC755774), SY5609 (NSC837396), and tovorafenib (DAY101, NSC766906), were obtained from the National Cancer Institute (NCI) Developmental Therapeutics Program Chemical Repository. The FDA-approved anticancer drug set is available from the NCI Developmental Therapeutics Program. […] The stock solutions were prepared in dimethyl sulfoxide (DMSO, Sigma-Aldrich, St. Louis, MO, cat. D2650) at 800-fold the tested concentration and stored at -70 degrees C prior to their use. All drugs and investigational agents were tested over a range starting from a high concentration at or near the clinical Cmax and decreasing in half-log increments. If the clinical Cmax for an agent had not been determined, the highest concentration tested was 10 microM.
Cell Culture. All cells were maintained in an incubator at 37 degrees C and 5% CO2 with 95% humidity. The PDC lines were cultured according to standard operating procedures established by the NCI PDMR. All PDCs were thawed and cultured in Matrigel-coated flasks prepared with a working solution of 1X Ham's F-12 nutrient mix, without supplementation (Invitrogen, Waltham, MA, cat. 11765054), 100 U/mL penicillin-streptomycin (Invitrogen, cat. 15140122), and 2.5% Matrigel (Corning Inc., Corning, NY, cat. 354248) for the first three passages. The 362531-283-R-J2-PDC and 782815-120-R-J1-PDC lines were cultured in 6C/Colon 1B media, which includes advanced DMEM/F-12 (Thermo Fisher Scientific, cat. 12634028), 10 mM HEPES (Thermo Fisher Scientific, cat. 15630080), 1X GlutaMAX supplement (Thermo Fisher Scientific, cat. 35050061), 0.1 mg/mL primocin (InvivoGen, San Diego, CA, cat. ant-pm-2), 10% defined fetal bovine serum, heat inactivated (HyClone Laboratories Inc., Logan, UT, cat. SH30070.03HI), 50% L-WRN conditioned media (ATCC, cat. CRL-3276), 1.25 mM N-Acetyl-L-cysteine (Sigma-Aldrich, cat. A9165), 10 mM nicotinamide (Sigma-Aldrich, cat. N0636), 1X B-27 supplement (Thermo Fisher Scientific, cat. 17504044), 1X N-2 supplement (Thermo Fisher Scientific, cat. 17502048), 50 ng/mL human EGF (Thermo Fisher Scientific, cat. PHG0311), and 10 microM Y-27632 dihydrochloride (Tocris Bioscience, cat. 1254). The K12877-001-R-J1-PDC line was cultured in 6I media, which includes all 6C/Colon 1B media plus 10 ng/mL human FGF-10 (PeproTech, cat. 100-26), 1 ng/mL human FGF-2 (PeproTech, cat. 100-18B), 1 µM prostaglandin E2 (Tocris Bioscience, cat. 2296), […] hydrocortisone (Sigma-Aldrich, cat. H4001), and […] bovine insulin (Sigma-Aldrich, cat. I6634). The K86415-001-R-J1-PDC line was cultured in 6D media, which includes all 6C/Colon 1B media components minus the L-WRN conditioned media. The 485176-168-R4-J1-PDC was cultured in PANC media, which includes all 6C/Colon 1B media plus 100 ng/mL human FGF-10 (PeproTech, cat. 100-26), 500 nM SB-431542 (Selleckchem, cat. S1067), and 10 nM gastrin (Tocris Bioscience, cat. 3006). […]

[1] = curve of first compound, second compound 0.0316 µM
[2] = curve of first compound, second compound 0.1 µM
[3] = curve of first compound, second compound 0.316 µM
[4] = curve of first compound, second compound 1 µM
[5] = curve of first compound, second compound 3.16 µM
[6] = curve of first compound, second compound 10 µM
[7] = second compound 0.0316 µM, first compound 0.00316 µM
[8] = second compound 0.0316 µM, first compound 0.01 µM
[9] = second compound 0.0316 µM, first compound 0.0316 µM
[10] = second compound 0.0316 µM, first compound 0.1 µM
[11] = second compound 0.0316 µM, first compound 0.316 µM
[12] = second compound 0.0316 µM, first compound 1 µM
[13] = second compound 0.1 µM, first compound 0.00316 µM
[14] = second compound 0.1 µM, first compound 0.01 µM
[15] = second compound 0.1 µM, first compound 0.0316 µM
[16] = second compound 0.1 µM, first compound 0.1 µM
[17] = second compound 0.1 µM, first compound 0.316 µM
[18] = second compound 0.1 µM, first compound 1 µM
[19] = second compound 0.316 µM, first compound 0.00316 µM
[20] = second compound 0.316 µM, first compound 0.01 µM
[21] = second compound 0.316 µM, first compound 0.0316 µM
[22] = second compound 0.316 µM, first compound 0.1 µM
[23] = second compound 0.316 µM, first compound 0.316 µM
[24] = second compound 0.316 µM, first compound 1 µM
[25] = second compound 1 µM, first compound 0.00316 µM
[26] = second compound 1 µM, first compound 0.01 µM
[27] = second compound 1 µM, first compound 0.0316 µM
[28] = second compound 1 µM, first compound 0.1 µM
[29] = second compound 1 µM, first compound 0.316 µM
[30] = second compound 1 µM, first compound 1 µM
[31] = second compound 3.16 µM, first compound 0.00316 µM
[32] = second compound 3.16 µM, first compound 0.01 µM
[33] = second compound 3.16 µM, first compound 0.0316 µM
[34] = second compound 3.16 µM, first compound 0.1 µM
[35] = second compound 3.16 µM, first compound 0.316 µM
[36] = second compound 3.16 µM, first compound 1 µM
[37] = second compound 10 µM, first compound 0.00316 µM
[38] = second compound 10 µM, first compound 0.01 µM
[39] = second compound 10 µM, first compound 0.0316 µM
[40] = second compound 10 µM, first compound 0.1 µM
[41] = second compound 10 µM, first compound 0.316 µM
[42] = second compound 10 µM, first compound 1 µM
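Note: spheroids exposed to compound for 7 days before readout.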
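Throughout, for viability, T/C: 100% = DMSO vehicle control luminescence.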

IC50 (curve of compound): > 10000 nM
Structure (SMILES): CC(C)NCC(C(=O)N1CCN(c2ncnc3c2C(C)CC3O)CC1)c1ccc(Cl)cc1 (stereo not given)
viability, T/C (compound 0.1 µM): 108% [middle of 4 runs]
viability, T/C (compound 0.316 µM): 119% and 102% (3×)
viability, T/C (compound 1 µM): 100% [middle of 4 runs]
viability, T/C (compound 3.16 µM): 100% [middle of 4 runs]
viability, T/C (compound 10 µM): 103% [middle of 4 runs]

Structure (SMILES): Cc1nc(N2CCC3(CC2)COC(C)C3N)c(CO)nc1Sc1ccnc(N)c1Cl (stereo not given)
viability, T/C (compound 0.1 µM): 81.2% [middle of 4 runs]
viability, T/C (compound 0.316 µM): 70.5% [middle of 4 runs]
viability, T/C (compound 1 µM): 62.4% [middle of 4 runs]
viability, T/C (compound 3.16 µM): 53.9% [middle of 4 runs]
viability, T/C (compound 10 µM): 46.1% [middle of 4 runs]

IC50 [1]: > 1000 nM
IC50 [2]: > 1000 nM
IC50 [3]: 765 nM
IC50 [4]: 401 nM
IC50 [5]: 287 nM
IC50 [6]: 125 nM
Structure (SMILES): C=CC(=O)Nc1cc(Nc2nccc(-c3cn(C)c4ccccc34)n2)c(OC)cc1N(C)CCN(C)C + C#Cc1c(F)ccc2cc(O)cc(-c3ncc4c(N5CC6CCC(C5)N6)nc(OCC56CCCN5CC(F)C6)nc4c3F)c12
viability, T/C [7]: 114%
viability, T/C [8]: 98.3%
viability, T/C [9]: 111%
viability, T/C [10]: 92.2%
viability, T/C [11]: 78.9%
viability, T/C [12]: 57.1%
viability, T/C [13]: 110%
viability, T/C [14]: 98%
viability, T/C [15]: 105%
viability, T/C [16]: 94.5%
viability, T/C [17]: 74.5%
viability, T/C [18]: 57.8%
viability, T/C [19]: 98.4%
viability, T/C [20]: 103%
viability, T/C [21]: 80.7%
viability, T/C [22]: 92%
viability, T/C [23]: 72.8%
viability, T/C [24]: 42.5%
viability, T/C [25]: 91.2%
viability, T/C [26]: 99.6%
viability, T/C [27]: 60.5%
viability, T/C [28]: 73.7%
viability, T/C [29]: 61.1%
viability, T/C [30]: 29.8%
viability, T/C [31]: 90.2%
viability, T/C [32]: 70.8%
viability, T/C [33]: 87.3%
viability, T/C [34]: 69%
viability, T/C [35]: 48.5%
viability, T/C [36]: 19.8%
viability, T/C [37]: 67.4%
viability, T/C [38]: 81.5%
viability, T/C [39]: 64.1%
viability, T/C [40]: 56.2%
viability, T/C [41]: 30.8%
viability, T/C [42]: 24.6%

IC50 [1]: 170 nM
IC50 [2]: 196 nM
IC50 [3]: 135 nM
IC50 [4]: 104 nM
IC50 [5]: 84.8 nM
IC50 [6]: 24.1 nM
Structure (SMILES): O=C(c1ccc(F)c(F)c1Nc1ccc(I)cc1F)N1CC(O)([C@@H]2CCCCN2)C1 + C#Cc1c(F)ccc2cc(O)cc(-c3ncc4c(N5CC6CCC(C5)N6)nc(OCC56CCCN5CC(F)C6)nc4c3F)c12
viability, T/C [7]: 100%
viability, T/C [8]: 95.1%
viability, T/C [9]: 79%
viability, T/C [10]: 61.6%
viability, T/C [11]: 37.2%
viability, T/C [12]: 22.1%
viability, T/C [13]: 99.7%
viability, T/C [14]: 103%
viability, T/C [15]: 86%
viability, T/C [16]: 66.1%
viability, T/C [17]: 39.2%
viability, T/C [18]: 22.2%
viability, T/C [19]: 100%
viability, T/C [20]: 99.4%
viability, T/C [21]: 64.3%
viability, T/C [22]: 59.3%
viability, T/C [23]: 35.9%
viability, T/C [24]: 17.2%
viability, T/C [25]: 89.8%
viability, T/C [26]: 81.8%
viability, T/C [27]: 55.4%
viability, T/C [28]: 60.5%
viability, T/C [29]: 31.6%
viability, T/C [30]: 16.9%
viability, T/C [31]: 79%
viability, T/C [32]: 62.9%
viability, T/C [33]: 61.8%
viability, T/C [34]: 51.5%
viability, T/C [35]: 32.2%
viability, T/C [36]: 15.7%
viability, T/C [37]: 56.7%
viability, T/C [38]: 62.1%
viability, T/C [39]: 45.3%
viability, T/C [40]: 31%
viability, T/C [41]: 19.1%
viability, T/C [42]: 17.1%
